Experimental data as given in patent US20240208992A1, “MACROCYCLES AS CFTR MODULATORS” (Idorsia Pharmaceuticals Ltd, priority 2021, published 2024).

Target: human F508del-CFTR (Homo sapiens, UniProt P13569, DEL508-508)
Assay: F508del-CFTR cell surface expression (corrector activity), DiscoveRx ß-galactosidase complementation chemiluminescence assay in recombinant U2OS cell line;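 note: U2OS cells co-expressing ProLink-tagged F508del-CFTR and a membrane-anchored enzyme acceptor, where more surface CFTR restores β-galactosidase activity measured by chemiluminescence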
Conditions: U2OS cell line, 16h compound incubation; for EC50: EC50, F508del-CFTR cell surface expression, geomean values; for Emax: U2OS, in relation to the Emax of the corrector lumacaftor (=100%), arithmetic mean values

human F508del-CFTR, sequence (P13569 with tags, fused parts or gaps DEL508-508): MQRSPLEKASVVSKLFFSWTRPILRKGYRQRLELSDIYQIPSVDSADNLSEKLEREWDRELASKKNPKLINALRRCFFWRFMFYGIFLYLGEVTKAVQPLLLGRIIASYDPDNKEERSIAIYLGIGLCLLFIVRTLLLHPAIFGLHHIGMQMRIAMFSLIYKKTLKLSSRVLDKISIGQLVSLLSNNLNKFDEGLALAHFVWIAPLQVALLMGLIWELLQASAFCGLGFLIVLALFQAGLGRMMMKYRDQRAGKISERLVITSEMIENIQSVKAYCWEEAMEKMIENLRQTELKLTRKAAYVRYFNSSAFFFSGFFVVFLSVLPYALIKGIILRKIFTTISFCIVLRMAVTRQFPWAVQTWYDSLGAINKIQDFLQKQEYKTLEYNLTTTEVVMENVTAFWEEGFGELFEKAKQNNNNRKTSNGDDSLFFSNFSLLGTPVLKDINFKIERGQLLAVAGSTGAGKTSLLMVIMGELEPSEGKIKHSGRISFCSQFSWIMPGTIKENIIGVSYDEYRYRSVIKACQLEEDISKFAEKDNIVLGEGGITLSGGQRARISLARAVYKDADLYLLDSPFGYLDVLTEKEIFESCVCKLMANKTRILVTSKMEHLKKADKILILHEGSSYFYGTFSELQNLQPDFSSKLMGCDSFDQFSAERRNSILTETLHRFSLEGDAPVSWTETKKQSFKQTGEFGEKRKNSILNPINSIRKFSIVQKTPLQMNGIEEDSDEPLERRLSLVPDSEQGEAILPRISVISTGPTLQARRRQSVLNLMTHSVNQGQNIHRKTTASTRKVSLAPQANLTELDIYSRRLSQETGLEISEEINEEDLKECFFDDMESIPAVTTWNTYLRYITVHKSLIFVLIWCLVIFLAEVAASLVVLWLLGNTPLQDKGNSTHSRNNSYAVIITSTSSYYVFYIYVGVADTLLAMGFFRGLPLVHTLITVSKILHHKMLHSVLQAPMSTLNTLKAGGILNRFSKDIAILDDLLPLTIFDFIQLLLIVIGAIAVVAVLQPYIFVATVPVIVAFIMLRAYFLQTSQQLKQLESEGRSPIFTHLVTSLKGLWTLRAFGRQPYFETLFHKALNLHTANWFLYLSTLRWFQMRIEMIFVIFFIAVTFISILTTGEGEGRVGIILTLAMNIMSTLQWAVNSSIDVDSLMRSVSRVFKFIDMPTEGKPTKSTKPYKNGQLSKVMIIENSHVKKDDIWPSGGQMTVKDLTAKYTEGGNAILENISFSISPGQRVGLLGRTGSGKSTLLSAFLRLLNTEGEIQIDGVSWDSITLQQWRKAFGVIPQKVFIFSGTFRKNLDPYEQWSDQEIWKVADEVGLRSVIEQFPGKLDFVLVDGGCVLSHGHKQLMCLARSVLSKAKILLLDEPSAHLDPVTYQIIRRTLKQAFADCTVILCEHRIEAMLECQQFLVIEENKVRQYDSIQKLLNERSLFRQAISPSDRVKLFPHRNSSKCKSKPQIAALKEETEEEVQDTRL

Row | SMILES | EC50 | Emax
1 | CC(C)C[C@H]1C(=O)N(C)C2(CC2)C(=O)N[C@H](Cc2ccccc2)COc2cnc3ccc(F)cc3c2C(=O)N[C@H](C(=O)NCCc2cccc(C(F)(F)F)c2)CC(=O)N1C [Example 169, (3′S,7′S,13′R)-13′-benzyl-20′-fluoro-7′-isobutyl-6′,9′-dimethyl-1′,5′,8′,11′-tetraoxo-N-(3-(trifluoromethyl)phenethyl)-2′,3′,4′,5′,6′,7′,8′,9′,11′,12′,13′,14′-dodecahydro-1′H-spiro[cyclopropane-1,10′-[1]oxa[4,7,10,14]tetraazacycloheptadecino[17,16-c]quinoline]-3′-carboxamide] | 334 nM | 170%
2 | CC(C)C[C@H]1C(=O)N(C)C2(CC2)C(=O)N[C@H](Cc2ccccc2)COc2cnc3ccc(F)cc3c2C(=O)N[C@H](C(=O)NCCc2ccc(N3CCOCC3)cc2)CC(=O)N1C [Example 170, (3′S,7′S,13′R)-13′-benzyl-20′-fluoro-7′-isobutyl-6′,9′-dimethyl-N-(4-morpholinophenethyl)-1′,5′,8′,11′-tetraoxo-2′,3′,4′,5′,6′,7′,8′,9′,11′,12′,13′,14′-dodecahydro-1′H-spiro[cyclopropane-1,10′-[1]oxa[4,7,10,14]tetraazacycloheptadecino[17,16-c]quinoline]-3′-carboxamide] | 329 nM | 267%
3 | CC(C)C[C@H]1C(=O)N(C)C2(CC2)C(=O)N[C@H](Cc2ccccc2)COc2cnc3ccc(F)cc3c2C(=O)N[C@H](C(=O)NCCn2cc(Br)cn2)CC(=O)N1C [Example 173, (3′S,7′S,13′R)-13′-benzyl-N-(2-(4-bromo-1H-pyrazol-1-yl)ethyl)-20′-fluoro-7′-isobutyl-6′,9′-dimethyl-1′,5′,8′,11′-tetraoxo-2′,3′,4′,5′,6′,7′,8′,9′,11′,12′,13′,14′-dodecahydro-1′H-spiro[cyclopropane-1,10′-[1]oxa[4,7,10,14]tetraazacycloheptadecino[17,16-c]quinoline]-3′-carboxamide] | 455 nM | 212%
4 | COCCCc1cnn(CCNC(=O)[C@@H]2CC(=O)N(C)[C@@H](CC(C)C)C(=O)N(C)C3(CC3)C(=O)N[C@H](Cc3ccccc3)COc3cnc4ccc(F)cc4c3C(=O)N2)c1 [Example 174, (3′S,7′S,13′R)-13′-benzyl-20′-fluoro-7′-isobutyl-N-(2-(4-(3-methoxypropyl)-1H-pyrazol-1-yl)ethyl)-6′,9′-dimethyl-1′,5′,8′,11′-tetraoxo-2′,3′,4′,5′,6′,7′,8′,9′,11′,12′,13′,14′-dodecahydro-1′H-spiro[cyclopropane-1,10′-[1]oxa[4,7,10,14]tetraazacycloheptadecino[17,16-c]quinoline]-3′-carboxamide] | 954 nM | 194%
5 | COc1nccc2c1C(=O)N[C@H](C(=O)NCCc1cc(C(F)(F)F)no1)CC(=O)N(C)[C@@H](CC(C)C)C(=O)N1CCCC[C@@H]1C(=O)N[C@H](Cc1ccccc1)CO2 [Example 177, (7S,11S,17aR,20R)-20-benzyl-11-isobutyl-4-methoxy-10-methyl-5,9,12,18-tetraoxo-N-(2-(3-(trifluoromethyl)isoxazol-5-yl)ethyl)-5,6,7,8,9,10,11,12,15,16,17,17a,18,19,20,21-hexadecahydro-14H-dipyrido[2,1-f:3′,4′-p][1]oxa[4,7,10,14]tetraazacycloheptadecine-7-carboxamide] | 647 nM | 248%
6 | COc1nccc2c1C(=O)N[C@H](C(=O)NCCc1nc(C(F)(F)F)no1)CC(=O)N(C)[C@@H](CC(C)C)C(=O)N1CCCC[C@@H]1C(=O)N[C@H](Cc1ccccc1)CO2 [Example 178, (7S,11S,17aR,20R)-20-benzyl-11-isobutyl-4-methoxy-10-methyl-5,9,12,18-tetraoxo-N-(2-(3-(trifluoromethyl)-1,2,4-oxadiazol-5-yl)ethyl)-5,6,7,8,9,10,11,12,15,16,17,17a,18,19,20,21-hexadecahydro-14H-dipyrido[2,1-f:3′,4′-p][1]oxa[4,7,10,14]tetraazacycloheptadecine-7-carboxamide] | 680 nM | 237%
7 | COc1cccc(CCNC(=O)[C@@H]2CC(=O)N(C)[C@@H](CC(C)C)C(=O)N3CCCC[C@@H]3C(=O)N[C@H](Cc3ccccc3)COc3ccnc(OC)c3C(=O)N2)c1 [Example 180, (7S,11S,17aR,20R)-20-benzyl-11-isobutyl-4-methoxy-N-(3-methoxyphenethyl)-10-methyl-5,9,12,18-tetraoxo-5,6,7,8,9,10,11,12,15,16,17,17a,18,19,20,21-hexadecahydro-14H-dipyrido[2,1-f:3′,4′-p][1]oxa[4,7,10,14]tetraazacycloheptadecine-7-carboxamide] | 388 nM | 257%
8 | COc1nccc2c1C(=O)N[C@H](C(=O)NCCc1ccc(-c3ncccn3)cc1)CC(=O)N(C)[C@@H](CC(C)C)C(=O)N1CCCC[C@@H]1C(=O)N[C@H](Cc1ccccc1)CO2 [Example 181, (7S,11S,17aR,20R)-20-benzyl-11-isobutyl-4-methoxy-10-methyl-5,9,12,18-tetraoxo-N-(4-(pyrimidin-2-yl)phenethyl)-5,6,7,8,9,10,11,12,15,16,17,17a,18,19,20,21-hexadecahydro-14H-dipyrido[2,1-f:3′,4′-p][1]oxa[4,7,10,14]tetraazacycloheptadecine-7-carboxamide] | 718 nM | 251%
9 | COc1nccc2c1C(=O)N[C@H](C(=O)NCCc1nc(-c3ccccc3)no1)CC(=O)N(C)[C@@H](CC(C)C)C(=O)N1CCCC[C@@H]1C(=O)N[C@H](Cc1ccccc1)CO2 [Example 182, (7S,11S,17aR,20R)-20-benzyl-11-isobutyl-4-methoxy-10-methyl-5,9,12,18-tetraoxo-N-(2-(3-phenyl-1,2,4-oxadiazol-5-yl)ethyl)-5,6,7,8,9,10,11,12,15,16,17,17a,18,19,20,21-hexadecahydro-14H-dipyrido[2,1-f:3′,4′-p][1]oxa[4,7,10,14]tetraazacycloheptadecine-7-carboxamide] | 406 nM | 270%
10 | COc1nccc2c1C(=O)N[C@H](C(=O)NCCc1ccccc1)CC(=O)N(C)[C@@H](CC(C)C)C(=O)N1CCCC[C@@H]1C(=O)N[C@H](Cc1ccccc1)CO2 [Example 183, (7S,11S,17aR,20R)-20-benzyl-11-isobutyl-4-methoxy-10-methyl-5,9,12,18-tetraoxo-N-phenethyl-5,6,7,8,9,10,11,12,15,16,17,17a,18,19,20,21-hexadecahydro-14H-dipyrido[2,1-f:3′,4′-p][1]oxa[4,7,10,14]tetraazacycloheptadecine-7-carboxamide] | 621 nM | 237%

More lines, in order of falling EC50, values ahead:

Row | EC50 | Emax | SMILES
11 | 821 nM | 245% | COc1nccc2c1C(=O)N[C@H](C(=O)NCCc1cnn(C3CC3)c1)CC(=O)N(C)[C@@H](CC(C)C)C(=O)N1CCCC[C@@H]1C(=O)N[C@H](Cc1ccccc1)CO2 [Example 176, (7S,11S,17aR,20R)-20-benzyl-N-(2-(1-cyclopropyl-1H-pyrazol-4-yl)ethyl)-11-isobutyl-4-methoxy-10-methyl-5,9,12,18-tetraoxo-5,6,7,8,9,10,11,12,15,16,17,17a,18,19,20,21-hexadecahydro-14H-dipyrido[2,1-f:3′,4′-p][1]oxa[4,7,10,14]tetraazacycloheptadecine-7-carboxamide]
12 | 731 nM | 251% | COc1nccc2c1C(=O)N[C@H](C(=O)NCCn1cc(C3CC3)cn1)CC(=O)N(C)[C@@H](CC(C)C)C(=O)N1CCCC[C@@H]1C(=O)N[C@H](Cc1ccccc1)CO2 [Example 179, (7S,11S,17aR,20R)-20-benzyl-N-(2-(4-cyclopropyl-1H-pyrazol-1-yl)ethyl)-11-isobutyl-4-methoxy-10-methyl-5,9,12,18-tetraoxo-5,6,7,8,9,10,11,12,15,16,17,17a,18,19,20,21-hexadecahydro-14H-dipyrido[2,1-f:3′,4′-p][1]oxa[4,7,10,14]tetraazacycloheptadecine-7-carboxamide]
13 | 324 nM | 213% | CC(C)C[C@H]1C(=O)N(C)C2(CC2)C(=O)N[C@H](Cc2ccccc2)COc2cnc3ccc(F)cc3c2C(=O)N[C@H](C(=O)NCCn2cc(C3CC3)cn2)CC(=O)N1C [Example 172, (3′S,7′S,13′R)-13′-benzyl-N-(2-(4-cyclopropyl-1H-pyrazol-1-yl)ethyl)-20′-fluoro-7′-isobutyl-6′,9′-dimethyl-1′,5′,8′,11′-tetraoxo-2′,3′,4′,5′,6′,7′,8′,9′,11′,12′,13′,14′-dodecahydro-1′H-spiro[cyclopropane-1,10′-[1]oxa[4,7,10,14]tetraazacycloheptadecino[17,16-c]quinoline]-3′-carboxamide]
14 | 229 nM | 179% | COc1cccc(C(F)(F)CNC(=O)[C@@H]2CC(=O)N(C)[C@@H](CC(C)C)C(=O)N(C)C3(CC3)C(=O)N[C@H](Cc3ccccc3)COc3cnc4ccccc4c3C(=O)N2)c1 [Example 175, (3′S,7′S,13′R)-13′-benzyl-N-(2,2-difluoro-2-(3-methoxyphenyl)ethyl)-7′-isobutyl-6′,9′-dimethyl-1′,5′,8′,11′-tetraoxo-2′,3′,4′,5′,6′,7′,8′,9′,11′,12′,13′,14′-dodecahydro-1′H-spiro[cyclopropane-1,10′-[1]oxa[4,7,10,14]tetraazacycloheptadecino[17,16-c]quinoline]-3′-carboxamide]
15 | 144 nM | 301% | CC(C)C[C@H]1C(=O)N2CCCC[C@@H]2C(=O)N[C@H](Cc2ccccc2)COc2cnc3ccc(F)cc3c2C(=O)N[C@H](C(=O)NCCc2noc(C(C)C)n2)CC(=O)N1C [Example 171, (9S,13S,19aR,22R)-22-benzyl-5-fluoro-13-isobutyl-N-(2-(5-isopropyl-1,2,4-oxadiazol-3-yl)ethyl)-12-methyl-7,11,14,20-tetraoxo-7,8,9,10,11,12,13,14,17,18,19,19a,20,21,22,23-hexadecahydro-16H-pyrido[2′,1′:6,7][1]oxa[4,7,10,14]tetraazacycloheptadecino[17,16-c]quinoline-9-carboxamide]
